For orientation: IC50 means the concentration that inhibits the measured activity by half. A low value points to greater potency in that assay.

The structures appear in SMILES notation.

In the first experiment the target is T1, Aldo-keto reductase family 1 member B1 (Homo sapiens, UniProt P15121). The experiment is described as follows: Compound was evaluated for inhibition of human placental aldose reductase (HPAR) activity with glyceraldehyde as substrate.
Compound `CCCCNS(=O)(=O)c1ccc(Cl)cc1C1NC(=O)NC1=O` (centres undefined) registered an IC50 of 700 nM. Same read-out and setting: the same measure for `CS(=O)(=O)c1ccc(Cl)cc1C1NC(=O)NC1=O` (centres undefined): 50 nM; for `C[S+]([O-])c1ccc(Cl)cc1C1NC(=O)NC1=O` (centres undefined): 250 nM.

The target in the next experiment is T1, Aldo-keto reductase family 1 member B1. The experiment is described as follows: Inhibition of human placental aldose reductase (HPAR) activity with glyceraldehyde as substrate.
In turn, `CCCCCCS(=O)(=O)c1ccc(Cl)cc1C1NC(=O)NC1=O` (centres undefined) showed an IC50 of 230 nM. The same measure, in the same setting: the same measure for `CC(C)S(=O)(=O)c1ccc(Cl)cc1C1NC(=O)NC1=O` (centres undefined): 380 nM. As to `O=C1NC(=O)C(c2cc(Cl)ccc2S(=O)(=O)NCc2ccccc2)N1` (centres undefined), inhibition was half-maximal at 30 nM (IC50). The compound `O=C1NC(=O)C(c2cc(Cl)ccc2S(=O)(=O)CCc2ccc(Cl)cc2)N1` (centres undefined) showed an IC50 of 220 nM. On to `O=C1NC(=O)C(c2cc(Cl)ccc2S(=O)(=O)NCCCCc2ccccc2)N1` (centres undefined), for which it took 5630 nM to reach half-maximal inhibition (IC50). Still for that read-out and setting: the same measure for `CCCCCS(=O)(=O)c1ccc(Cl)cc1C1NC(=O)NC1=O` (centres undefined): 50 nM; for `CCS(=O)(=O)c1ccc(Cl)cc1C1NC(=O)NC1=O` (centres undefined): 180 nM; for `Cc1cc(Cl)cc(C2NC(=O)NC2=O)c1S(C)(=O)=O` (centres undefined): 270 nM. The compound `CCCCCNS(=O)(=O)c1ccc(Cl)cc1C1NC(=O)NC1=O` (centres undefined) registered a 50% inhibitory concentration (IC50) of 190 nM. The same measure, in the same setting: the same measure for `O=C1NC(=O)C(c2cc(Cl)ccc2S(=O)(=O)Cc2ccc(Cl)cc2)N1` (centres undefined): 270 nM.

Take `O=C1NC(=O)C(c2cc(Cl)ccc2S(=O)(=O)NCCCc2ccccc2)N1` (centres undefined): the IC50 turned out to be 100 nM. `CNS(=O)(=O)c1ccc(Cl)cc1C1NC(=O)NC1=O` (centres undefined) came in with an IC50 of 130 nM. Regarding `COc1ccc(F)cc1C1NC(=O)NC1=O` (centres undefined), it took 7470 nM to reach half-maximal inhibition (IC50). The same measure, in the same setting: the same measure for `O=C1NC(=O)C(c2cc(Cl)ccc2[S+]([O-])Cc2ccc(Cl)cc2)N1` (centres undefined): 470 nM. For the compound `O=C1NC(=O)C(c2cc(Cl)ccc2SCc2ccc(Cl)cc2)N1` (centres undefined), the IC50 came out at 1200 nM. Against the preceding compound, the IC50 is about 2.6-fold higher. Same read-out and setting: the figure for `CS(=O)(=O)c1ccc(F)cc1C1NC(=O)NC1=O` (centres undefined) is 610 nM; for `O=C1NC(=O)C(c2cc(Cl)ccc2S(=O)(=O)Nc2ccc(F)cc2)N1` (centres undefined) it is 230 nM; for `O=C1NC(=O)C(c2cc(Cl)ccc2S(=O)(=O)NCCc2ccccc2)N1` (centres undefined) it is 1260 nM. On to `CS(=O)(=O)c1c(Cl)cc(Cl)cc1C1NC(=O)NC1=O` (centres undefined), for which half-maximal inhibition (IC50) was put at 610 nM. Same read-out and setting: the same measure for `COc1ccc(Cl)cc1C1NC(=O)NC1=O` (centres undefined): 3870 nM; for `CSc1ccc(Cl)cc1C1NC(=O)NC1=O` (centres undefined): 620 nM; for `NS(=O)(=O)c1ccc(Cl)cc1C1NC(=O)NC1=O` (centres undefined): 150 nM. Turning to `CN(C)S(=O)(=O)c1ccc(Cl)cc1C1NC(=O)NC1=O` (centres undefined), the IC50 turned out to be 4470 nM. The same measure, in the same setting: the same measure for `CCCNS(=O)(=O)c1ccc(Cl)cc1C1NC(=O)NC1=O` (centres undefined): 580 nM; for `CS(=O)(=O)c1c(C2NC(=O)NC2=O)cc(Cl)cc1C(F)(F)F` (centres undefined): 580 nM; for `CCCS(=O)(=O)c1ccc(Cl)cc1C1NC(=O)NC1=O` (centres undefined): 250 nM.

The record behind these values is ChEMBL document CHEMBL1124482, “Rotationally restricted mimics of rigid molecules: nonspirocyclic hydantoin aldose reductase inhibitors” (J Med Chem, 1989).
